Assay results reported in patent US10709718B2, “Inhibitors of diacylglycerol O-acyltransferase 1 (DGAT-1) and uses thereof” (Metabasis Therapeutics, Inc., priority 2009, dated 2020).
Like-named read-outs stand apart in the source and are kept apart here.

What was measured:
[1] = molecular target: hDGAT1 (Homo sapiens (Human), UniProt O75907); test: Inhibition of human microsomal DGAT activity (14C-TAG formation, intestinal microsomes); format: biochemical
Method: The inhibition of DGAT-1 activity can be assessed in intestinal microsome preparations by monitoring the incorporation of radiolabeled fatty acyl-CoA into […].
Methods: Commercial microsomal preparations containing 60 ug of protein are incubated in assay buffer [20 uM 1,2-didecanloyl glycerol, 5 uM ^14C decanoyl-CoA, 5 mM MgCl2, 0.4% BSA, 0.1% dimethyl sulfoxide (DMSO), 50 mM HEPES-pH 7.5] in the presence of varying concentrations of inhibitors that are dispensed from 100% DMSO stock solutions. Final assay volumes are 200 uL. Reactions are carried out for 45 minutes in 96-well polystyrene microtiter plates at ambient temperature. Following the ambient temperature incubation, assay mixtures are applied to a 96-well filter plate (Catalog # MSHVN4510, Millipore Inc.; Billerica, Mass.) under vacuum. The filter plate is pre-equilibrated with 100 uL of 70% ethanol followed by 200 uL of assay buffer. […] De novo ^14C-TAG formed in the assay and trapped on the filters is quantified with use of a liquid scintillation counter (Model # LS6500 Beckman Coulter, Inc.; Fullerton, Calif.).

[2] = tested on: Sprague Dawley rats; test: In vivo assay for intestinal triglyceride export (serum TAG after olive oil gavage); parameters: species or system rat; conditions: oral administration, doses in the range of 0.1 to 30 mg/kg
Method: The following screen can be used to evaluate the effects of DGAT-1 inhibitors on the export of dietary TAGs from the intestine to the circulation in rodents (male Sprague Dawley rats or C57BL/6 mice).
Methods: Animals (housed 2/cage) are fasted overnight, and dosed (PO) the next day with vehicle (1% Tween-80) or test compound at doses ranging from 0.01 to 30 mg/kg, followed by an oral gavage of olive oil. Blood samples are taken at baseline and at appropriate intervals over the course of 4 hours. Serum TAG levels are determined using the Infinity triglyceride reagent per the manufacturer's instructions.

[3] = Plasma pharmacokinetics and oral bioavailability in rats; format: in vivo, rat; conditions: male Sprague Dawley rats, 5 mg/kg, LOQ 0.001 ug/mL
Method: Pharmacokinetic studies in rats are useful for the identification of DGAT-1 inhibitors that have low oral bioavailability and show low systemic exposure (i.e. low circulating levels in plasma).
Methods: Groups of male Sprague Dawley rats (200-250 g) (n=3/group) were administered either an IV bolus (1% Tween-80, pH adjusted to 7, vehicle) or an oral gavage (50% PEG-200 in 1% Tween-80 vehicle) of 5 mg/kg of each DGAT-1 inhibitor. Blood (EDTA) was collected by tail nick at 0.5, 1, 2, 4, 8, 10-12 and 24 hr post dose. Following centrifugation of the blood to obtain plasma, the samples were analyzed by LC-MS/MS method for active metabolite. The pharmacokinetic parameters were calculated by noncompartmental analysis of the plasma concentration-time profile of the active metabolite. The oral bioavailability was determined by dividing the dose-normalized plasma AUC value of the active metabolite following oral administration of the DGAT-1 inhibitor by the plasma AUC value of the active metabolite after IV bolus administration.

[4] = microsomal preparation, 14C decanoyl-CoA, 45 min, ambient temperature

Sequence of hDGAT1 (O75907 whole entry): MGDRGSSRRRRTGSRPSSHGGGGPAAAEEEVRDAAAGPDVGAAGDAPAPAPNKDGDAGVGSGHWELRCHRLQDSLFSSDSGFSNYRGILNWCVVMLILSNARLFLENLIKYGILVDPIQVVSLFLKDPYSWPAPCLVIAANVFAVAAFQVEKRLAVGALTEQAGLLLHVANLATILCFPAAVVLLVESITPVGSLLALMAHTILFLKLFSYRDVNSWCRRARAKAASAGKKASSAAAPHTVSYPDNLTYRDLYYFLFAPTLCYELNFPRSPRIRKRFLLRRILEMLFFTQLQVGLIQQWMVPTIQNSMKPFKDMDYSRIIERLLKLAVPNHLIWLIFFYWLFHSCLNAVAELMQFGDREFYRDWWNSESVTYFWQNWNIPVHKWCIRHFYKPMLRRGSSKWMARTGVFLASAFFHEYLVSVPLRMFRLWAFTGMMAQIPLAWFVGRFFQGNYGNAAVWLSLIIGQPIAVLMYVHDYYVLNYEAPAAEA

Structure (SMILES) | IC50 [1, 4] | also measured
CC1(C)Oc2ncnc(N)c2N=C1c1ccc([C@H]2CC[C@H](CP(C)(=O)O)CC2)cc1 [Compound 1] | < 10 nM | AUC0-4h of serum TAGs [2]: reduced; Cmax [3]: 9 ng/mL
CP(=O)(O)[C@@H]1CCC[C@H]1C(=O)c1ccc(-c2ccc(NC(=O)Nc3ccccc3)cc2)cc1 [Compound 2] |  | AUC0-4h of serum TAGs [2]: reduced; Cmax [3]: 5 ng/mL
CC1(C)Oc2ncnc(N)c2N=C1c1ccc([C@H]2CC[C@H](OP(=O)(O)O)CC2)cc1 [Compound 3] | < 10 nM | 
CP(=O)(O)C[C@H]1CC[C@H](c2ccc(NC(=O)c3nnc(Nc4ccc(F)c(F)c4)o3)cc2)CC1 [Compound 5] | < 10 nM | AUC0-4h of serum TAGs [2]: reduced; Cmax [3]: 3 ng/mL
CC(C)COP(=O)(O)O[C@H]1CC[C@H](c2ccc(C3=Nc4c(N)ncnc4OC3(C)C)cc2)CC1 [Compound 8] | < 10 nM | 
CCOP(=O)(O)OC1CCC(c2ccc(C3=Nc4c(N)ncnc4OC3(C)C)cc2)CC1 (stereo not shown) [Compound 9] |  | IC50 [1]: < 10 nM
CC1(C)Oc2ncnc(N)c2N=C1c1ccc(C2CCC(OP(=O)(O)OC3CCCC3)CC2)cc1 (stereo not shown) [Compound 10] | < 10 nM | 
CC1(C)Oc2ncnc(N)c2N=C1c1ccc(C2CCC(OP(=O)(O)Cc3ccccc3)CC2)cc1 (stereo not shown) [Compound 11] | < 10 nM | 
CC1(C)Oc2ncnc(N)c2N=C1c1ccc([C@H]2CC[C@H](OP(=O)(O)c3ccccc3)CC2)cc1 [Compound 14] | < 10 nM | 
CC1(C)Oc2ncnc(N)c2N=C1c1ccc([C@H]2CC[C@H](OP(=O)(O)Cc3ccc(C(=O)O)cc3)CC2)cc1 [Compound 17] | < 10 nM | 
CC1(C)Oc2ncnc(N)c2N=C1c1ccc([C@H]2CC[C@H](OP(=O)(O)c3cccs3)CC2)cc1 [Compound 19] | < 10 nM | 
CC1(C)Oc2ncnc(N)c2N=C1c1ccc([C@H]2CC[C@H](OP(=O)(O)c3ccsc3)CC2)cc1 [Compound 20] | < 10 nM | 
CC1(C)Oc2ncnc(N)c2N=C1c1ccc([C@H]2CC[C@H](CP(=O)(O)c3ccccc3)CC2)cc1 [Compound 21] | < 10 nM | 
CC1(C)Oc2ncnc(N)c2N=C1c1ccc([C@H]2CC[C@H](CP(=O)(O)C3CC3)CC2)cc1 [Compound 23] | < 10 nM | 
